Calls of active or inactive are those of the source. How the calls were made is not given here.
Tested on: CCRIS mutagenicity, Ames/micronucleus/aberration tests
Assay: CCRIS mutagenicity studies
[1] = Test System: AMES SALMONELLA TYPHIMURIUM, Strain/Indicator: TA100, Metabolic Activation: NONE, Method: STANDARD PLATE
[2] = Test System: AMES SALMONELLA TYPHIMURIUM, Strain/Indicator: TA1535, Metabolic Activation: NONE, Method: STANDARD PLATE
[3] = Test System: AMES SALMONELLA TYPHIMURIUM, Strain/Indicator: TA98, Metabolic Activation: NONE, Method: PREINCUBATION
[4] = Test System: AMES SALMONELLA TYPHIMURIUM, Strain/Indicator: TA100, Metabolic Activation: NONE, Method: PREINCUBATION
[5] = Test System: AMES SALMONELLA TYPHIMURIUM, Strain/Indicator: TA98, Metabolic Activation: NONE, Method: STANDARD PLATE
[6] = Test System: AMES SALMONELLA TYPHIMURIUM, Strain/Indicator: TA98, Metabolic Activation: RAT, LIVER, S-9, AROCLOR 1254, Method: STANDARD PLATE
[7] = Test System: AMES SALMONELLA TYPHIMURIUM, Strain/Indicator: TA100, Metabolic Activation: RAT, LIVER, S-9, AROCLOR 1254, Method: STANDARD PLATE
[8] = Test System: AMES SALMONELLA TYPHIMURIUM, Strain/Indicator: TA1537, Metabolic Activation: NONE, Method: STANDARD PLATE

In the case of `C(CC1CO1)C1CO1` (stereo unspecified), the mutagenic call [1] is reported as “active; positive” and the mutagenic call [2] is reported as “active; positive”.

`COc1cccc2c1C(=O)c1c(O)c3c(c(O)c1C2=O)C[C@@](O)(C(=O)CO)CC3O[C@H]1C[C@H](N(C)C)[C@H](O)[C@H](C)O1` (stereo partly specified) was tested, and the mutagenic call (Test System: AMES SALMONELLA TYPHIMURIUM, Strain/Indicator: TA98, Metabolic Activation: NONE) was “inactive; negative”, the mutagenic call (Test System: AMES SALMONELLA TYPHIMURIUM, Strain/Indicator: TA98, Metabolic Activation: RAT, LIVER, S-9, AROCLOR 1254) was “inactive; negative” and the mutagenic call (Test System: AMES SALMONELLA TYPHIMURIUM, Strain/Indicator: TA102, Metabolic Activation: NONE, Method: STANDARD PLATE) was “active; positive”. For the same compound, the mutagenic call (Test System: UDS RAT HEPATOCYTES, Strain/Indicator: THY INCORP, Metabolic Activation: NONE, Method: AUTOMATIC COLONY COUNTER) was “active; positive”.

`Cc1ccc2cc3c(cc2c1)-c1cccc2cccc-3c12` was tested, and the mutagenic call (Test System: AMES SALMONELLA TYPHIMURIUM, Strain/Indicator: TA100, Metabolic Activation: RAT, LIVER, S-9, AROCLOR 1254) was “active; positive”.

With `Cc1ccc(N)c([N+](=O)[O-])c1` the mutagenic call [3] was “inactive; negative”, the mutagenic call (Test System: AMES SALMONELLA TYPHIMURIUM, Strain/Indicator: TA98, Metabolic Activation: RAT, LIVER, S-9, KANECHLOR 500, Method: PREINCUBATION) was “inactive; negative” and the mutagenic call [4] was “inactive; negative”. For the same compound, the mutagenic call (Test System: AMES SALMONELLA TYPHIMURIUM, Strain/Indicator: TA100, Metabolic Activation: RAT, LIVER, S-9, KANECHLOR 500, Method: PREINCUBATION) was “inactive; negative” and the mutagenic call (Test System: UDS RODENT HEPATOCYTES, Strain/Indicator: THY INCORP (NON-S-PHASE), Metabolic Activation: NONE, Method: AUTORADIOGRAPHY) was “inactive; negative”.

In the case of `CC(C)=CCC[C@](C)(O)[C@@H]1CC=C(C)CC1`, the mutagenic call (End Point: AMES SALMONELLA TYPHIMURIUM, Test System: TA97A, Metabolic Activation: NONE, Method: STANDARD PLATE) is reported as “inactive; negative”, the mutagenic call (End Point: AMES SALMONELLA TYPHIMURIUM, Test System: TA97A, Metabolic Activation: RAT, LIVER, S-9, AROCLOR 1254, Method: STANDARD PLATE) is reported as “inactive; negative” and the mutagenic call (End Point: AMES SALMONELLA TYPHIMURIUM, Test System: TA98, Metabolic Activation: NONE, Method: STANDARD PLATE) is reported as “inactive; negative”. For the same compound, the mutagenic call (End Point: AMES SALMONELLA TYPHIMURIUM, Test System: TA98, Metabolic Activation: RAT, LIVER, S-9, AROCLOR 1254, Method: STANDARD PLATE) was “inactive; negative”, the mutagenic call (End Point: AMES SALMONELLA TYPHIMURIUM, Test System: TA100, Metabolic Activation: NONE, Method: STANDARD PLATE) was “inactive; negative” and the mutagenic call (End Point: AMES SALMONELLA TYPHIMURIUM, Test System: TA100, Metabolic Activation: RAT, LIVER, S-9, AROCLOR 1254, Method: STANDARD PLATE) was “inactive; negative”. The mutagenic call (End Point: AMES SALMONELLA TYPHIMURIUM, Test System: TA1535, Metabolic Activation: NONE, Method: STANDARD PLATE) was “inactive; negative” and the mutagenic call (End Point: AMES SALMONELLA TYPHIMURIUM, Test System: TA1535, Metabolic Activation: RAT, LIVER, S-9, AROCLOR 1254, Method: STANDARD PLATE) was “inactive; negative”.

With `c1cc2sncc2cc1OCC1CO1` (stereo unspecified) the mutagenic call (Test System: AMES SALMONELLA TYPHIMURIUM, Strain/Indicator: TA100, Metabolic Activation: S-9, Method: STANDARD PLATE) was “active; positive”.

For `Nc1ccc(C(=O)O)cc1`, the mutagenic call (Test System: AMES SALMONELLA TYPHIMURIUM, Strain/Indicator: TA98, Metabolic Activation: HAMSTER, LIVER, S-9, AROCLOR 1254 (10%), Method: PREINCUBATION) was “inactive; negative”, the mutagenic call [3] was “inactive; negative” and the mutagenic call (Test System: AMES SALMONELLA TYPHIMURIUM, Strain/Indicator: TA98, Metabolic Activation: RAT, LIVER, S-9, AROCLOR 1254 (10%), Method: PREINCUBATION) was “inactive; negative”. The mutagenic call (Test System: AMES SALMONELLA TYPHIMURIUM, Strain/Indicator: TA100, Metabolic Activation: HAMSTER, LIVER, S-9, AROCLOR 1254 (10%), Method: PREINCUBATION) was “inactive; negative”, the mutagenic call [4] was “inactive; negative” and the mutagenic call (Test System: AMES SALMONELLA TYPHIMURIUM, Strain/Indicator: TA100, Metabolic Activation: RAT, LIVER, S-9, AROCLOR 1254 (10%), Method: PREINCUBATION) was “inactive; negative”. For the same compound, the mutagenic call (Test System: AMES SALMONELLA TYPHIMURIUM, Strain/Indicator: TA1535, Metabolic Activation: HAMSTER, LIVER, S-9, AROCLOR 1254 (10%), Method: PREINCUBATION) was “inactive; negative”, the mutagenic call (Test System: AMES SALMONELLA TYPHIMURIUM, Strain/Indicator: TA1535, Metabolic Activation: NONE, Method: PREINCUBATION) was “inactive; negative” and the mutagenic call (Test System: AMES SALMONELLA TYPHIMURIUM, Strain/Indicator: TA1535, Metabolic Activation: RAT, LIVER, S-9, AROCLOR 1254 (10%), Method: PREINCUBATION) was “inactive; negative”. For the same compound, the mutagenic call (Test System: AMES SALMONELLA TYPHIMURIUM, Strain/Indicator: TA1537, Metabolic Activation: HAMSTER, LIVER, S-9, AROCLOR 1254 (10%), Method: PREINCUBATION) was “inactive; negative”, the mutagenic call (Test System: AMES SALMONELLA TYPHIMURIUM, Strain/Indicator: TA1537, Metabolic Activation: NONE, Method: PREINCUBATION) was “inactive; negative” and the mutagenic call (Test System: AMES SALMONELLA TYPHIMURIUM, Strain/Indicator: TA1537, Metabolic Activation: RAT, LIVER, S-9, AROCLOR 1254 (10%), Method: PREINCUBATION) was “inactive; negative”.

`CCCCCC(=O)O[C@]1(C(C)=O)CC[C@H]2[C@@H]3CCC4=CC(=O)CC[C@@H]4[C@H]3CC[C@@]21C` was tested, and the mutagenic call [5] was “inactive; negative”, the mutagenic call [6] was “inactive; negative” and the mutagenic call [1] was “inactive; negative”. For the same compound, the mutagenic call [7] was “inactive; negative”, the mutagenic call [2] was “inactive; negative” and the mutagenic call (Test System: AMES SALMONELLA TYPHIMURIUM, Strain/Indicator: TA1535, Metabolic Activation: RAT, LIVER, S-9, AROCLOR 1254, Method: STANDARD PLATE) was “inactive; negative”. The mutagenic call [8] was “inactive; negative”, the mutagenic call (Test System: AMES SALMONELLA TYPHIMURIUM, Strain/Indicator: TA1537, Metabolic Activation: RAT, LIVER, S-9, AROCLOR 1254, Method: STANDARD PLATE) was “inactive; negative” and the mutagenic call (Test System: AMES SALMONELLA TYPHIMURIUM, Strain/Indicator: TA1538, Metabolic Activation: NONE, Method: STANDARD PLATE) was “inactive; negative”. The mutagenic call (Test System: AMES SALMONELLA TYPHIMURIUM, Strain/Indicator: TA1538, Metabolic Activation: RAT, LIVER, S-9, AROCLOR 1254, Method: STANDARD PLATE) was “inactive; negative”.

In the case of `CCOC(=O)[C@H]1O[C@@H]1C(=O)N[C@@H](CC(C)C)C(=O)NCCC(C)C`, the mutagenic call [3] is reported as “inactive; negative”, the mutagenic call [5] is reported as “inactive; negative” and the mutagenic call (Test System: AMES SALMONELLA TYPHIMURIUM, Strain/Indicator: TA98, Metabolic Activation: RAT, LIVER, S-9, Method: PREINCUBATION) is reported as “inactive; negative”. For the same compound, the mutagenic call (Test System: AMES SALMONELLA TYPHIMURIUM, Strain/Indicator: TA98, Metabolic Activation: RAT, LIVER, S-9, Method: STANDARD PLATE) was “inactive; negative”, the mutagenic call [4] was “inactive; negative” and the mutagenic call [1] was “inactive; negative”. The mutagenic call (Test System: AMES SALMONELLA TYPHIMURIUM, Strain/Indicator: TA100, Metabolic Activation: RAT, LIVER, S-9, Method: PREINCUBATION) was “inactive; negative”, the mutagenic call (Test System: AMES SALMONELLA TYPHIMURIUM, Strain/Indicator: TA100, Metabolic Activation: RAT, LIVER, S-9, Method: STANDARD PLATE) was “inactive; negative” and the mutagenic call [2] was “inactive; negative”. For the same compound, the mutagenic call (Test System: AMES SALMONELLA TYPHIMURIUM, Strain/Indicator: TA1535, Metabolic Activation: RAT, LIVER, S-9, Method: STANDARD PLATE) was “inactive; negative”, the mutagenic call [8] was “inactive; negative” and the mutagenic call (Test System: AMES SALMONELLA TYPHIMURIUM, Strain/Indicator: TA1537, Metabolic Activation: RAT, LIVER, S-9, Method: STANDARD PLATE) was “inactive; negative”. The mutagenic call (Test System: E. COLI, Strain/Indicator: WP2 UVRA, Metabolic Activation: NONE, Method: STANDARD PLATE) was “inactive; negative” and the mutagenic call (Test System: E. COLI, Strain/Indicator: WP2 UVRA, Metabolic Activation: RAT, LIVER, S-9, Method: STANDARD PLATE) was “inactive; negative”.

`O=C(/C=C/c1ccccc1)c1ccc(F)cc1` was tested, and the mutagenic call [5] was “inactive; negative”, the mutagenic call [6] was “inactive; negative” and the mutagenic call [1] was “inactive; negative”. The mutagenic call [7] was “inactive; negative”.

Source: PubChem BioAssay AID1259407 (Chemical Carcinogenesis Research Information System (CCRIS), 2018)
